# Assay results from US11053204B2, “Pyrimidinyloxy benzene derivatives as herbicides” (FMC Corporation, priority 2015, dated 2021).
# Legend:
# Type in all cases: in vivo
# [1] = system: blackgrass (Alopecurus myosuroides); test: Test C preemergence, plant response rating; details: Preemergence
# Outline: (§1)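 Visual injury score, 0 = no effect, 100 = complete control, assigned against untreated controls after 13 to 15 d in the greenhouse. Compounds were applied in a surfactant-containing non-phytotoxic solvent mix, preemergence to seeded loam/sand or silt loam soil, or postemergence to 1- to 4-leaf plants (2 to 18 cm).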
# corn (Zea mays) [2] = test: Test C preemergence, plant response rating; details: Preemergence
# Outline: as §1
# [3] = system: crabgrass, large (large crabgrass, Digitaria sanguinalis); test: Test C preemergence, plant response rating; details: Preemergence
# Outline: as §1
# [4] = system: foxtail, giant (giant foxtail, Setaria faberii); test: Test C preemergence, plant response rating; details: Preemergence
# Outline: as §1
# [5] = system: lambsquarters (Chenopodium album); test: Test C preemergence, plant response rating; details: Preemergence
# Outline: as §1
# [6] = system: morningglory (Ipomoea coccinea); test: Test C preemergence, plant response rating; details: Preemergence
# Outline: as §1
# [7] = system: nutsedge, yellow (yellow nutsedge, Cyperus esculentus); test: Test C preemergence, plant response rating; details: Preemergence
# Outline: as §1
# [8] = system: oilseed rape (Brassica napus); test: Test C preemergence, plant response rating; details: Preemergence
# Outline: as §1
# [9] = system: ryegrass, Italian (Italian ryegrass, Lolium multiflorum); test: Test C preemergence, plant response rating; details: Preemergence
# Outline: as §1
# soybean (Glycine max) [10] = test: Test C preemergence, plant response rating; details: Preemergence
# Outline: as §1
# [11] = system: velvetleaf (Abutilon theophrasti); test: Test C preemergence, plant response rating; details: Preemergence
# Outline: as §1
# [12] = system: waterhemp (common waterhemp, Amaranthus rudis); test: Test C preemergence, plant response rating; details: Preemergence
# Outline: as §1
# [13] = system: wheat (winter wheat, Triticum aestivum); test: Test C preemergence, plant response rating; details: Preemergence
# Outline: as §1
# corn (Zea mays) [14] = test: Test C postemergence, plant response rating; details: for Corn plant response rating: scale 0 to 100 (0 no effect, 100 complete control)
# Outline: as §1
# [15] = system: crabgrass, large (large crabgrass, Digitaria sanguinalis); test: Test C postemergence, plant response rating; details: for Crabgrass, Large plant response rating: scale 0 to 100 (0 no effect, 100 complete control)
# Outline: as §1
# [16] = system: foxtail, giant (giant foxtail, Setaria faberii); test: Test C postemergence, plant response rating; details: for Foxtail, Giant plant response rating: scale 0 to 100 (0 no effect, 100 complete control)
# Outline: as §1
# [17] = system: galium (catchweed bedstraw, Galium aparine); test: Test C postemergence, plant response rating; details: for Galium plant response rating: scale 0 to 100 (0 no effect, 100 complete control)
# Outline: as §1
# kochia (Kochia scoparia) = test: Test C postemergence, plant response rating; details: for Kochia plant response rating: scale 0 to 100 (0 no effect, 100 complete control)
# Outline: as §1
# [18] = system: oilseed rape (Brassica napus); test: Test C postemergence, plant response rating; details: for Oilseed Rape plant response rating: scale 0 to 100 (0 no effect, 100 complete control)
# Outline: as §1
# soybean (Glycine max) [19] = test: Test C postemergence, plant response rating; details: for Soybean plant response rating: scale 0 to 100 (0 no effect, 100 complete control)
# Outline: as §1
# [20] = system: waterhemp (common waterhemp, Amaranthus rudis); test: Test C postemergence, plant response rating
# Outline: as §1
structure (smiles),measurement,setting,value
CCCCC(=O)c1c(Br)cccc1Oc1ncc(Cl)cn1 [Compound 79],"Plant response rating, Blackgrass","[1]; 62 g ai/ha, scale of 0 to 100",75
same,"Plant response rating, Blackgrass","[1]; 125 g ai/ha, scale of 0 to 100",90
same,"Plant response rating, Blackgrass","[1]; 16 g ai/ha, scale 0 to 100",5
same,"Plant response rating, Blackgrass","[1]; 31 g ai/ha, scale 0 to 100",10
same,"Plant response rating, Corn","corn (Zea mays) [2]; 62 g ai/ha, scale of 0 to 100",5
same,"Plant response rating, Corn","corn (Zea mays) [2]; 125 g ai/ha, scale of 0 to 100",30
same,"Plant response rating, Corn","corn (Zea mays) [2]; 16 g ai/ha, scale 0 to 100",0
same,"Plant response rating, Corn","corn (Zea mays) [2]; 31 g ai/ha, scale 0 to 100",0
same,"Plant response rating, Crabgrass, Large","[3]; 62 g ai/ha, scale of 0 to 100",100
same,"Plant response rating, Crabgrass, Large","[3]; 125 g ai/ha, scale of 0 to 100",98
same,"Plant response rating, Crabgrass, Large","[3]; 16 g ai/ha, scale 0 to 100",65
same,"Plant response rating, Crabgrass, Large","[3]; 31 g ai/ha, scale 0 to 100",98
same,"Plant response rating, Foxtail, Giant","[4]; 62 g ai/ha, scale of 0 to 100",80
same,"Plant response rating, Foxtail, Giant","[4]; 125 g ai/ha, scale of 0 to 100",98
same,"Plant response rating, Foxtail, Giant","[4]; 16 g ai/ha, scale 0 to 100",40
same,"Plant response rating, Foxtail, Giant","[4]; 31 g ai/ha, scale 0 to 100",70
same,"Plant response rating, Lambsquarters","[5]; 125 g ai/ha, scale of 0 to 100",85
same,"Plant response rating, Lambsquarters","[5]; 16 g ai/ha, scale 0 to 100",0
same,"Plant response rating, Lambsquarters","[5]; 31 g ai/ha, scale 0 to 100",10
same,"Plant response rating, Lambsquarters","[5]; 62 g ai/ha, scale 0 to 100",70
same,"Plant response rating, Morningglory","[6]; 125 g ai/ha, scale of 0 to 100",60
same,"Plant response rating, Morningglory","[6]; 16 g ai/ha, scale 0 to 100",20
same,"Plant response rating, Morningglory","[6]; 31 g ai/ha, scale 0 to 100",10
same,"Plant response rating, Morningglory","[6]; 62 g ai/ha, scale 0 to 100",10
same,"Plant response rating, Nutsedge, Yellow","[7]; 125 g ai/ha, scale of 0 to 100",0
same,"Plant response rating, Nutsedge, Yellow","[7]; 16 g ai/ha, scale 0 to 100",0
same,"Plant response rating, Nutsedge, Yellow","[7]; 31 g ai/ha, scale 0 to 100",0
same,"Plant response rating, Nutsedge, Yellow","[7]; 62 g ai/ha, scale 0 to 100",0
same,"Plant response rating, Oilseed Rape","[8]; 125 g ai/ha, scale of 0 to 100",95
same,"Plant response rating, Oilseed Rape","[8]; 16 g ai/ha, scale 0 to 100",0
same,"Plant response rating, Oilseed Rape","[8]; 31 g ai/ha, scale 0 to 100",0
same,"Plant response rating, Oilseed Rape","[8]; 62 g ai/ha, scale 0 to 100",70
same,"Plant response rating, Ryegrass, Italian","[9]; 125 g ai/ha, scale of 0 to 100",35
same,"Plant response rating, Ryegrass, Italian","[9]; 16 g ai/ha, scale 0 to 100",0
same,"Plant response rating, Ryegrass, Italian","[9]; 31 g ai/ha, scale 0 to 100",10
same,"Plant response rating, Ryegrass, Italian","[9]; 62 g ai/ha, scale 0 to 100",30
same,"Plant response rating, Soybean","soybean (Glycine max) [10]; 125 g ai/ha, scale of 0 to 100",5
same,"Plant response rating, Soybean","soybean (Glycine max) [10]; 16 g ai/ha, scale 0 to 100",0
same,"Plant response rating, Soybean","soybean (Glycine max) [10]; 31 g ai/ha, scale 0 to 100",0
same,"Plant response rating, Soybean","soybean (Glycine max) [10]; 62 g ai/ha, scale 0 to 100",5
same,"Plant response rating, Velvetleaf","[11]; 125 g ai/ha, scale of 0 to 100",75
same,"Plant response rating, Velvetleaf","[11]; 16 g ai/ha, scale 0 to 100",10
same,"Plant response rating, Velvetleaf","[11]; 31 g ai/ha, scale 0 to 100",5
same,"Plant response rating, Velvetleaf","[11]; 62 g ai/ha, scale 0 to 100",20
same,"Plant response rating, Waterhemp","[12]; 125 g ai/ha, scale of 0 to 100",100
same,"Plant response rating, Waterhemp","[12]; 16 g ai/ha, scale 0 to 100",100
same,"Plant response rating, Waterhemp","[12]; 31 g ai/ha, scale 0 to 100",98
same,"Plant response rating, Waterhemp","[12]; 62 g ai/ha, scale 0 to 100",95
same,"Plant response rating, Wheat","[13]; 125 g ai/ha, scale of 0 to 100",15
same,"Plant response rating, Wheat","[13]; 16 g ai/ha, scale 0 to 100",0
same,"Plant response rating, Wheat","[13]; 31 g ai/ha, scale 0 to 100",5
same,"Plant response rating, Wheat","[13]; 62 g ai/ha, scale 0 to 100",5
same,"Plant response rating, Corn","corn (Zea mays) [14]; 16 g ai/ha, scale of 0 to 100",15
same,"Plant response rating, Corn","corn (Zea mays) [14]; 31 g ai/ha, scale 0 to 100",25
same,Corn plant response rating,corn (Zea mays) [14]; 62 g ai/ha,20
same,Corn plant response rating,corn (Zea mays) [14]; 125 g ai/ha,20
same,"Plant response rating, Crabgrass, Large","[15]; 16 g ai/ha, scale of 0 to 100",10
same,"Plant response rating, Crabgrass, Large","[15]; 31 g ai/ha, scale 0 to 100",25
same,"Crabgrass, Large plant response rating",[15]; 62 g ai/ha,70
same,"Crabgrass, Large plant response rating",[15]; 125 g ai/ha,65
same,"Plant response rating, Foxtail, Giant","[16]; 16 g ai/ha, scale of 0 to 100",10
same,"Plant response rating, Foxtail, Giant","[16]; 31 g ai/ha, scale 0 to 100",20
same,"Foxtail, Giant plant response rating",[16]; 62 g ai/ha,25
same,"Foxtail, Giant plant response rating",[16]; 125 g ai/ha,40
same,"Plant response rating, Galium","[17]; 16 g ai/ha, scale of 0 to 100",75
same,"Plant response rating, Galium","[17]; 31 g ai/ha, scale 0 to 100",80
same,Galium plant response rating,[17]; 62 g ai/ha,85
same,Galium plant response rating,[17]; 125 g ai/ha,95
same,"Plant response rating, Kochia","kochia (Kochia scoparia); 16 g ai/ha, scale of 0 to 100",75
same,"Plant response rating, Kochia","kochia (Kochia scoparia); 31 g ai/ha, scale 0 to 100",80
same,Kochia plant response rating,kochia (Kochia scoparia); 62 g ai/ha,90
same,Kochia plant response rating,kochia (Kochia scoparia); 125 g ai/ha,98
same,"Plant response rating, Oilseed Rape","[18]; 16 g ai/ha, scale of 0 to 100",80
same,"Plant response rating, Oilseed Rape","[18]; 31 g ai/ha, scale 0 to 100",98
same,Oilseed Rape plant response rating,[18]; 62 g ai/ha,98
same,Oilseed Rape plant response rating,[18]; 125 g ai/ha,100
same,"Plant response rating, Soybean","soybean (Glycine max) [19]; 16 g ai/ha, scale of 0 to 100",60
same,"Plant response rating, Soybean","soybean (Glycine max) [19]; 31 g ai/ha, scale 0 to 100",70
same,Soybean plant response rating,soybean (Glycine max) [19]; 62 g ai/ha,65
same,Soybean plant response rating,soybean (Glycine max) [19]; 125 g ai/ha,65
same,"Plant response rating, Waterhemp","[20]; 16 g ai/ha, scale of 0 to 100",95
same,"Plant response rating, Waterhemp","[20]; 31 g ai/ha, scale 0 to 100",95
same,Waterhemp plant response rating,"[20]; 125 g ai/ha, scale 0 to 100 (0 no effect, 100 complete control)",98
